Biological target: T1, hSK3 channels (Homo sapiens, UniProt Q9UGI6)
T1 construct: expressed in transfected cells; host or cells: HEK293
Assay: Whole-cell patch-clamp recording of ionic current through SK channels (subtype 3) in HEK293 cells expressing hSK3
Assay type: cell-based
Conditions: SK3 activation
Protocol: The ionic current through small-conductance Ca^2+-activated K^+ channels (SK channels, subtype 3) is recorded using the whole-cell configuration of the patch-clamp technique in a classic patch-clamp set-up using HEK293 tissue culture cells expressing hSK3 channels as described in e.g. WO 2006/100212.
The SC100 value determined is defined as the Stimulating Concentration required for increasing the baseline current by 100%.

The SC100 (Stimulating Concentration required for increasing the baseline current by 100%) [µM] | SMILES
0.2 | Cc1cc(C)n(-c2nc(NCCc3ccccc3)c3ncn(C)c3n2)n1 [Compound 9.11, [2-(3,5-Dimethyl-pyrazol-1-yl)-9-methyl-9H-purin-6-yl]-phenethyl-amine]
1.0 | Cc1cc(-c2ccco2)nn1-c1nc(Nc2ccc(Cl)cc2)c2ncn(C)c2n1 [Compound 9.18, (4-Chloro-phenyl)-[2-(3-furan-2-yl-5-methyl-pyrazol-1-yl)-9-methyl-9H-purin-6-yl]-amine]
0.01 | CCn1cnc2c(Nc3ccc(Cl)cc3)nc(-n3nc(C)cc3C)nc21 [Compound 6.4, (4-Chloro-phenyl)-[2-(3,5-dimethyl-pyrazol-1-yl)-9-ethyl-9H-purin-6-yl]-amine]
0.6 | CCc1cc(CC)n(-c2nc(Nc3ccc(Cl)cc3)c3ncn(C)c3n2)n1 [Compound 9.14, (4-Chloro-phenyl)-[2-(3,5-diethyl-pyrazol-1-yl)-9-methyl-9H-purin-6-yl]-amine]
0.02 | Cc1nn(-c2nc(Nc3ccc(Cl)cc3)c3ncn(C)c3n2)c(C)c1Cl [Compound 9.16, [2-(4-Chloro-3,5-dimethyl-pyrazol-1-yl)-9-methyl-9H-purin-6-yl]-(4-chloro-phenyl)-amine]
0.05 | Cc1cc(C)n(-c2nc(Nc3ccc(F)cc3)c3ncn(C)c3n2)n1 [Compound 9.1, [2-(3,5-Dimethyl-pyrazol-1-yl)-9-methyl-9H-purin-6-yl]-(4-fluoro-phenyl)-amine]
0.2 | Cc1cc(C)n(-c2nc(Nc3ccccc3)c3nc[nH]c3n2)n1 [Compound 14.1, [2-(3,5-Dimethyl-pyrazol-1-yl)-9H-purin-6-yl]-phenyl-amine]
0.4 | COCCn1cnc2c(Nc3ccccc3)nc(-n3nc(C)cc3C)nc21 [Compound 15.1, [2-(3,5-Dimethyl-pyrazol-1-yl)-9-(2-methoxy-ethyl)-9H-purin-6-yl-]phenyl-amine]
0.4 | Cc1cc(C)n(-c2nc(Nc3ccc(Cl)nc3)c3ncn(C)c3n2)n1 [Compound 9.7, (6-Chloro-pyridin-3-yl)-[2-(3,5-dimethyl-pyrazol-1-yl)-9-methyl-9H-purin-6-yl]-amine]
0.2 | Cc1cc(CO)n(-c2nc(Nc3ccc(Cl)cc3)c3ncn(C)c3n2)n1 [Compound 13.1, {2-[6-(4-Chloro-phenylamino)-9-methyl-9H-purin-2-yl]-5-methyl-2H-pyrazol-3-yl}-methanol]
0.2 | Cc1cc(C)n(-c2nc(Nc3ccc([N+](=O)[O-])cc3)c3ncn(C)c3n2)n1 [Compound 9.8, [2-(3,5-Dimethyl-pyrazol-1-yl)-9-methyl-9H-purin-6-yl]-(4-nitro-phenyl)-amine]

— patent US9340544B2, “Purinyl derivatives and their use as potassium channel modulators” (NeuroSearch A/S, priority 2007, dated 2016)
